“And” between values parts separate entries of the source, which are not always exact repeats. Identical values can stand only once.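 The compound was tested at five concentrations on cells cultured in 96-well plates, with a 48-hour exposure period. Here, GI50 denotes the concentration required for 50% inhibition of growth. At the TGI there is no net growth.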
Test system: MDA-MB-468 breast
Assay: NCI tumour cell line growth inhibition, 48 h

Structure (SMILES) | GI50 | TGI
Cc1cccc2c3c(sc12)C(c1ccc(Cl)cc1)C(C#N)=C(N)O3 (configuration not stated) | 0.277 µM | 3.75 µM
O=C(Nc1cccc(-n2cc(-c3ccncc3)c(-c3cc(O)cc(Cl)c3)n2)c1)c1cc(C(F)(F)F)cc(C(F)(F)F)c1 | 3.1 µM | > 100 µM
CC(=O)NCc1cccc(C#Cc2cncnc2Nc2ccc(OCc3cccc(F)c3)c(Cl)c2)c1 | 1.29 µM | 6.29 µM
COC(=O)[C@H]1CCCN1C(=O)[C@H]1CCCN1C(=O)[C@@H](Cc1c[nH]c2ccccc12)NC(=S)Nc1cc(C(F)(F)F)cc(C(F)(F)F)c1 | 2.26 µM | 5.9 µM
CCN(CC)CCCCCCNc1cc(OC)cc2cccnc12 | 1.93 µM | 3.8 µM
O=C(/C=C/c1cccc(O)c1)c1cccc(-n2cc(-c3ccccc3)[nH]c2=O)c1 | 2.46 µM | 7.7 µM
O=[N+]([O-])c1ccc(N2CCOCC2)c2c1no[n+]2[O-] | 0.769 µM | 2.83 µM
CC(C)(O)CNc1nc(Nc2ccnc(C(F)(F)F)c2)nc(-c2cccc(C(F)(F)F)n2)n1 | 18 µM | 38.5 µM
CSc1nc2sc3c(c2c(=O)n1-c1ccc(C(C)C)cc1)CCC(=O)C3 | 2.16 µM | 5.99 µM
Cn1cc(C2=C(c3cccc(OC[C@@H](O)CO)c3)C(=O)NC2=O)c2ccccc21 | > 25 µM | > 25 µM
COc1cc(/C=C/C(=O)c2cccc(-n3cc(-c4ccc(Cl)cc4)[nH]c3=O)c2)cc(OC)c1OC | 12.8 µM | 34.7 µM
c1ccc2c(c1)Nc1ccncc1S2 | 18.9 µM | 50.8 µM
C#CCNC(=O)[C@H](CC)[C@H]1CC[C@H](C)[C@H]([C@@H](C)[C@H](O)[C@H](C)C(=O)[C@H](CC)C2O[C@]3(C=CC(=O)[C@]4(CC[C@@](C)([C@H]5CC[C@](O)(CC)[C@H](C)O5)O4)O3)[C@H](C)C[C@@H]2C)O1 (some centres not stated) | 2.51 µM | 21.5 µM
Oc1ccc(C(c2ccc(O)cc2)c2ccc(Br)cn2)cc1 | 0.234 µM | 0.637 µM
COc1ccc(/C=C(\C#N)n2nnc3c(F)cccc32)cc1 | 1.58 µM | 6.67 µM
Nc1nc(Nc2ccccc2SSc2ccccc2Nc2nc(N)nc(C(Cl)(Cl)Cl)n2)nc(C(Cl)(Cl)Cl)n1 | 4.7 µM | 29.1 µM
CN(CCNCc1ccccn1)CCNCc1ccccn1 | 2.71 µM | 7.93 µM
CC1=C(CC(=O)c2cccc([N+](=O)[O-])c2)C(=O)c2ccccc2C1=O | 1.77 µM | 5.9 µM
CCCCCCNC(=O)Oc1ccc(/C(=C(\C)c2ccc(Cl)cc2)c2ccc(OCCN3CCCCC3)cc2)cc1 | 3.46 µM | 8.7 µM
COc1cc2c(cc1OCCCCN1CCN(C(=S)SCCC(C#N)(c3ccccc3)c3ccccc3)CC1)N=C[C@@H]1CCCN1C2=O | 0.499 µM | 31.4 µM
COC(=O)c1cncc(/C=C/c2c(C)cc(O)cc2C)c1 | 4.32 µM | 12.6 µM
C[C@]12CC[C@@H]3c4cc(OC(F)F)c(OS(N)(=O)=O)cc4CC[C@H]3[C@@H]1CC[C@@H]2O | 0.244 µM | 1.42 µM
Oc1c(I)cc(I)c2cccnc12 | 7.01 µM | 30.3 µM

Structure (SMILES) | GI50 | TGI
c1ccc2cc(-c3n(Cc4ccc5ccccc5n4)c4ccccc4[n+]3Cc3ccc4ccccc4n3)ccc2c1 | 0.116 µM | 0.529 µM
NS(=O)(=O)c1ccc(-c2cc3ccncc3cc2OCc2ccccc2)cc1 | 13.4 µM | > 25 µM
Cc1ccc(-c2nc([P+](c3ccccc3)(c3ccccc3)c3ccccc3)c(S(=O)(=O)c3ccc(C)cc3)o2)cc1 | 1.03 µM | 2.6 µM
Cc1cc(C#Cc2ccc(C(C)(C)C)cc2)ccc1-n1c(/C=C/c2ccc(O)cc2O)nc2ccccc2c1=O | 2.2 µM | 6.5 µM
Cc1cc(N(CCCNc2ccnc3cc(Cl)ccc23)Cc2ccco2)nc(N2CCN(C)CC2)n1 | 1.81 µM | 4.32 µM
CC1OC(OC2C(O)CC(OC3C(O)CC(OC4CCC5(C)C(CCC6C5CC(O)C5(C)C(C7=CC(=O)OC7)CCC65O)C4)OC3C)OC2C)CC(O)C1O (configuration not stated) | 0.159 µM | 0.364 µM
COc1ccc(N(CC(=O)NCCC[Te]c2ccccc2)C(=O)CNC(=O)OC(C)(C)C)cc1 | 3.2 µM | 10.9 µM
O=C(CC1(O)C(=O)N(Cc2ccccc2)c2ccccc21)c1ccc(C(=O)NCC2CCC3(CC2)OOC2(CCCCC2)OO3)cc1 (configuration not stated) | 1.49 µM | 3.31 µM
CCCCCO/N=C\c1c2c(O)c3c(O)c(C)c4c(c3c1O)C(=O)C(C)(O/C=C\C(OC)C(C)C(OC(C)=O)C(C)C(O)C(C)C(O)C(C)/C=C\C=C(\C)C(=O)N2)O4 (configuration not stated) | 2.17 µM | 6.33 µM
O=C(N/N=C/c1ccco1)c1[nH]c2ccc(Br)cc2c1-c1ccccc1 | 0.22 µM | 2.4 µM
C(=N/N(Cc1ccccc1)Cc1ccccc1)/c1ccccc1 | > 100 µM | > 100 µM
C=CCN1CC(=O)N2[C@@H](Cc3ccc(O)cc3F)C(=O)N(Cc3cccc(N4CC(N5CCN(CC)CC5)C4)n3)C[C@@H]2N1C(=O)NCc1ccccc1 | 0.232 µM | > 100 µM
COc1ccc(C(=O)c2c(N)c(C#N)cn2-c2cccc(OC)c2)cc1 | 1.12 µM | 4.23 µM
Oc1cccc2ccc(N/N=C/c3cc(CN4CCOCC4)c(O)c4ncccc34)nc12 | 0.0302 µM | 0.289 µM
COc1cc2nc(-c3cc(F)ccc3O)nc(N[C@@H]3CNC[C@H]3C(C)(C)O)c2cc1OC | 1.64 µM | 3.12 µM
COC1=C(OC)C(=O)C(SC/C=C(\C)CCCC(C)CCCC(C)CCCC(C)C)=CC1=O (configuration not stated) | 3.33 µM | > 100 µM
O=C1OC(C(O)CO)C(O)=C1O (configuration not stated) | 1820 µM and 2020 µM | 3760 µM and 4400 µM
C/C(=C\c1cnc(C)s1)[C@@H]1C[C@@H]2O[C@@H]2CCC[C@H](C)[C@H](O)[C@@H](C)C(=O)C(C)(C)[C@@H](O)CC(=O)O1 | < 0.01 µM | 1.81 µM
COc1ccc(-c2nc(/C=C3\SC(=NCc4ccccc4)NC3=O)c3ccccn23)cc1 | 1.9 µM | 4.39 µM
O=C(CCCCCCN1CC(=O)N2[C@@H](c3ccc(Cl)c(Cl)c3)c3[nH]c4ccccc4c3C[C@H]2C1=O)NO | 1.89 µM | 7.42 µM
N#CC1=C(/N=C/c2ccccc2)Oc2c(ccc3ccccc23)C1c1ccccc1 (configuration not stated) | 0.247 µM | 0.741 µM
N#CCCN1C/C(=C/c2ccc(Cl)cc2)C(=O)/C(=C/c2ccc(Cl)cc2)C1 | 1 µM | 2.89 µM
CCc1cccc(C)c1NC(=O)c1sc2nc3c(cc2c1N)C(=O)CCC3 | 0.377 µM | 60.5 µM

— PubChem BioAssay (NCI)
